Test results published in PubChem BioAssay (NCI).
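Tested at 5 concentrations; 48 h exposure; 96-well plates; endpoints linearly interpolated, else capped at highest concentration. TGI: concentration producing complete growth inhibition.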

Assays:
Assay in all cases: DTP human tumour cell line panel, 48 h
SK-OV-3 ovarian = test system: SK-OV-3 ovarian
DMS 114 small cell lung = test system: DMS 114 small cell lung
SN12C renal = test system: SN12C renal
A549 NSCLC = test system: A549 NSCLC
NCI-H23 lung = test system: NCI-H23 lung
A498 renal = test system: A498 renal
XF 498 CNS = test system: XF 498 CNS
DLD-1 colon = test system: DLD-1 colon
K-562 leukemia = test system: K-562 leukemia
UO-31 renal = test system: UO-31 renal
LXFL 529 NSCLC = test system: LXFL 529 NSCLC
SNB-78 CNS = test system: SNB-78 CNS
SK-MEL-2 melanoma = test system: SK-MEL-2 melanoma
SK-MEL-28 melanoma = test system: SK-MEL-28 melanoma
SK-MEL-5 melanoma = test system: SK-MEL-5 melanoma
MALME-3M melanoma = test system: MALME-3M melanoma
SF-268 CNS = test system: SF-268 CNS
NCI-H460 lung = test system: NCI-H460 lung
SF-295 CNS = test system: SF-295 CNS
TK-10 renal = test system: TK-10 renal
M19-MEL melanoma = test system: M19-MEL melanoma
U251 CNS = test system: U251 CNS
UACC-62 melanoma = test system: UACC-62 melanoma
KM20L2 colon = test system: KM20L2 colon
DMS 273 small cell lung = test system: DMS 273 small cell lung
SW-620 colon = test system: SW-620 colon
CAKI-1 renal = test system: CAKI-1 renal
ACHN renal = test system: ACHN renal
RXF 393 renal = test system: RXF 393 renal
HOP-92 NSCLC = test system: HOP-92 NSCLC
HL-60(TB) leukemia = test system: HL-60(TB) leukemia
KM12 colon = test system: KM12 colon
OVCAR-5 ovarian = test system: OVCAR-5 ovarian
EKVX NSCLC = test system: EKVX NSCLC
LOX IMVI melanoma = test system: LOX IMVI melanoma
CCRF-CEM leukemia = test system: CCRF-CEM leukemia
HOP-62 NSCLC = test system: HOP-62 NSCLC
OVCAR-8 ovarian = test system: OVCAR-8 ovarian
MOLT-4 leukemia = test system: MOLT-4 leukemia
SR leukemia = test system: SR leukemia
UACC-257 melanoma = test system: UACC-257 melanoma
SF-539 CNS = test system: SF-539 CNS
NCI-H226 lung = test system: NCI-H226 lung
SNB-19 CNS = test system: SNB-19 CNS
HT29 colon = test system: HT29 colon
786-0 renal = test system: 786-0 renal
OVCAR-4 ovarian = test system: OVCAR-4 ovarian
IGROV1 ovarian = test system: IGROV1 ovarian
SNB-75 CNS = test system: SNB-75 CNS
OVCAR-3 ovarian = test system: OVCAR-3 ovarian
NCI-H522 lung = test system: NCI-H522 lung
HCT-116 colon = test system: HCT-116 colon
M14 melanoma = test system: M14 melanoma

Measured: TGI

COc1cc(OC)c(C#N)c(OC)c1C
> 100 µM: SK-OV-3 ovarian | DMS 114 small cell lung | SN12C renal | A549 NSCLC | NCI-H23 lung | A498 renal | XF 498 CNS | DLD-1 colon | K-562 leukemia | UO-31 renal | LXFL 529 NSCLC | SNB-78 CNS | SK-MEL-2 melanoma | SK-MEL-28 melanoma | SK-MEL-5 melanoma | MALME-3M melanoma | SF-268 CNS | NCI-H460 lung | SF-295 CNS | TK-10 renal | M19-MEL melanoma | U251 CNS | UACC-62 melanoma | KM20L2 colon | DMS 273 small cell lung | SW-620 colon | CAKI-1 renal | ACHN renal | RXF 393 renal | HOP-92 NSCLC | HL-60(TB) leukemia | KM12 colon | OVCAR-5 ovarian | EKVX NSCLC | LOX IMVI melanoma | CCRF-CEM leukemia | HOP-62 NSCLC | OVCAR-8 ovarian | MOLT-4 leukemia | SR leukemia | UACC-257 melanoma | SF-539 CNS | NCI-H226 lung | SNB-19 CNS | HT29 colon | 786-0 renal | OVCAR-4 ovarian

O=C1c2cc3c(cc2[C@@H]2NC4CCCC14O2)OCO3 (stereo partly drawn)
> 100 µM: SK-OV-3 ovarian | DMS 114 small cell lung | SN12C renal | IGROV1 ovarian | A549 NSCLC | NCI-H23 lung | A498 renal | XF 498 CNS | DLD-1 colon | K-562 leukemia | UO-31 renal | LXFL 529 NSCLC | SNB-78 CNS | SK-MEL-2 melanoma | SK-MEL-28 melanoma | SK-MEL-5 melanoma | SF-268 CNS | NCI-H460 lung | SF-295 CNS | TK-10 renal | M19-MEL melanoma | U251 CNS | UACC-62 melanoma | SNB-75 CNS | KM20L2 colon | DMS 273 small cell lung | SW-620 colon | CAKI-1 renal | OVCAR-3 ovarian | ACHN renal | RXF 393 renal | HOP-92 NSCLC | HL-60(TB) leukemia | KM12 colon | OVCAR-5 ovarian | EKVX NSCLC | CCRF-CEM leukemia | HOP-62 NSCLC | OVCAR-8 ovarian | MOLT-4 leukemia | SR leukemia | UACC-257 melanoma | SF-539 CNS | NCI-H522 lung | NCI-H226 lung | SNB-19 CNS | HCT-116 colon | HT29 colon | M14 melanoma | 786-0 renal | OVCAR-4 ovarian
